Experimental data from patent publication US20240041878A1, “APELIN RECEPTOR MODULATORS FOR TREATMENT OF A DISORDER OR DISEASE ASSOCIATED WITH BBB PERMEABILITY” (BioAge Labs, Inc., priority 2022, published 2024).

What was measured:
[1] = tested on: NF-κB signaling pathway in astrocytes; experiment: RT Profiler PCR Array, mouse NF-κB Signaling Targets, in astrocytes; format: cell-based; details: RAC+BGE-105 [250 nM]
Procedure: To stimulate astrocytes into a reactive state found in aging and neurodegenerative diseases per previous publications (Liddelow et al., 2017; Barbar et al., 2020), a combination of the cytokines TNF-α and IL-1α, and complement factor C1q, were added at 30 ng/mL, 3 ng/mL, and 400 ng/mL, respectively, into astrocyte culture media to make ‘reactive astrocyte cocktail’ (RAC) media. […] Bachem, Cat. #4029110), BAY-11-7082 (50 μM; Abcam, Cat. #ab141228) or equal volume of vehicle (0.01% DMSO in PBS) (hereafter referred to as ‘RAC treatment’). […] Total RNA purity and concentration was assessed using NanoDrop (ThermoFisher). 500 ng of RNA was used for cDNA synthesis using High-Capacity cDNA Reverse Transcription Kit (Fisher Scientific, Cat. #43-749-66) and total volume of cDNA was diluted to a final concentration of 2 ng/μ1. Gene expression was assessed using a RT Profiler PCR Array (Qiagen, Cat. #330231) specific to mouse NF-κB Signaling Targets according to manufacturer's protocol.

[2] = tested on: human patient, iPSC-derived neurons; experiment: Neurons from patient derived induced pluripotent stem cells (iPSCs); format: cell-based; details: compared to cells not treated with BGE-105
Source text: This study assesses the effect of BGE-105 (or media from other brain cells exposed to BGE-105, such as microglia and astrocytes) in human patient, iPSC-derived neurons improves a variety of functions associated with beneficial neuronal outcomes, including those listed below • i. proliferation and survival • ii. Autophagy • iii. synaptic plasticity • iv. ROS production

Structure (SMILES): COc1cccc(OC)c1-n1c(NS(=O)(=O)[C@@H](C)[C@H](C)c2ncc(C)cn2)nnc1-c1cncc(C)c1 [BGE-105, (2S,3R)—N-(4-(2,6-dimethoxyphenyl)-5-(5-methyl-3-pyridinyl)-4H-1,2,4-triazol-3-yl)-3-(5-methyl-2-pyrimidinyl)-2-butanesulfonamide]
- decrease of Cxcl3 expression [1]: 55%
- increase of Csf3 expression [1]: 16%
- increase of Il2 expression [1]: 184%
- survival, differentiation and cellular functioning of stem-cell-derived neurons [2]: improves overall survival, differentiation, and cellular functioning
